Data: patent US12338220B2, “Antiviral pyrazolopiridinone compounds” (Novartis AG, priority 2019, dated 2025)
pEC50, pIC50: −log10 of the molar value. Like-named read-outs stand apart in the source and are kept apart here.

Assays:
CMV-polymerase = CMV-polymerase (Human cytomegalovirus (strain AD169) (HHV-5) (Human herpesvirus 5), UniProt P08546); experiment: biochemical
CMV = experiment: microbe, parasite or virus in culture; type: cell-based; conditions: Human betaherpesvirus 5, 72 h, read-out: CMV-Luc Cellular EC50, NN-NHDF cells, MOI 1, 72 hrs
[1] = read-out: CMV-polymerase Biochemical IC50
[2] = CMV-polymerase Biochemical IC50

Row | SMILES | pIC50 (CMV-polymerase; [1]) | pEC50 (CMV) | pIC50 (CMV-polymerase; [2])
1 | Cc1cc(CNC(=O)c2nn(C)c3c2CCN(CC2(S(=O)(=O)C4CC4)CC2)C3=O)ccc1C#N [Example 11, N-(4-Cyano-3-methylbenzyl)-6-((1-(cyclopropylsulfonyl)cyclopropyl)methyl)-1-methyl-7-oxo-4,5,6,7-tetrahydro-1H-pyrazolo[3,4-c]pyridine-3-carboxamide] | 7.77 | 6.67 | –
2 | Cn1nc(C(=O)N[C@H](CO)c2ccc(Cl)cc2)c2c1C(=O)N(CC1(S(=O)(=O)C3CC3)CC1)CC2 [Example 19, (S)-N-(1-(4-Chlorophenyl)-2-hydroxyethyl)-6-((1-(cyclopropylsulfonyl)cyclopropyl)methyl)-1-methyl-7-oxo-4,5,6,7-tetrahydro-1H-pyrazolo[3,4-c]pyridine-3-carboxamide] | 7.26 | < 5.00 | –
3 | COc1cc(CNC(=O)c2nn(C)c3c2CCN(CC2(S(=O)(=O)C4CC4)CC2)C3=O)ccc1C#N [Example 15, N-(4-Cyano-3-methoxybenzyl)-6-((1-(cyclopropylsulfonyl)cyclopropyl)methyl)-1-methyl-7-oxo-4,5,6,7-tetrahydro-1H-pyrazolo[3,4-c]pyridine-3-carboxamide] | 7.96 | 6.79 | –
4 | Cn1nc(C(=O)NCc2ccc(C#N)cc2)c2c1C(=O)N(CC1(S(=O)(=O)C(C)(C)COC(F)(F)CN)CC1)CC2 [Example 85, 6-((1-((1-(2-Amino-1,1-difluoroethoxy)-2-methylpropan-2-yl)sulfonyl)cyclopropyl)methyl)-N-(4-cyanobenzyl)-1-methyl-7-oxo-4,5,6,7-tetrahydro-1H-pyrazolo[3,4-c]pyridine-3-carboxamide] | – | 7.30 | 8.52
5 | N#Cc1ccc(CNC(=O)c2nn(CC3(CO)CC3)c3c2CCN(CC2(S(=O)(=O)C4CC4)CC2)C3=O)cc1 [Example 47, N-(4-Cyanobenzyl)-6-((1-(cyclopropylsulfonyl)cyclopropyl)methyl)-1-((1-(hydroxymethyl)cyclopropyl)methyl)-7-oxo-4,5,6,7-tetrahydro-1H-pyrazolo[3,4-c]pyridine-3-carboxamide] | – | 7.38 | 8.70
6 | CC1(C)COCCOCCn2nc(C(=O)NCc3ccc(Cl)cc3)c3c2C(=O)N(CC3)CC2(CC2)S1(=O)=O [Example 240, Ethylene glycol macrocycle N-(4-chlorobenzyl)carboxamide] | – | 7.37 | 9.00
7 | Cn1nc(C(=O)NCc2ccc(C#N)cc2)c2c1C(=O)N(CC1(S(=O)(=O)NC3CC3)CC1)CC2 [Example 129, N-(4-cyanobenzyl)-6-((1-(N-cyclopropylsulfamoyl)cyclopropyl)methyl)-1-methyl-7-oxo-4,5,6,7-tetrahydro-1H-pyrazolo[3,4-c]pyridine-3-carboxamide] | 7.80 | 6.61 | –
8 | CNC(=O)C(C)(C)S(=O)(=O)C1(CN2CCc3c(C(=O)NCc4ccc(Cl)cc4)nn(C)c3C2=O)CC1 [Example 110, N-(4-Chlorobenzyl)-1-methyl-6-((1-((2-methyl-1-(methylamino)-1-oxopropan-2-yl)sulfonyl)cyclopropyl)methyl)-7-oxo-4,5,6,7-tetrahydro-1H-pyrazolo[3,4-c]pyridine-3-carboxamide] | – | 6.66 | 8.30
9 | CC1(C)C(=O)NCCOCCn2nc(C(=O)NCc3ccc(C#N)cc3)c3c2C(=O)N(CC3)CC2(CC2)S1(=O)=O [Example 241, Lactam macrocycle N-(4-cyanobenzyl)carboxamide] | – | 6.33 | 7.89
10 | COC1CN(CC(C)(C)S(=O)(=O)C2(CN3CCc4c(C(=O)NCc5ccc(C#N)cc5)nn(C)c4C3=O)CC2)C1 [Example 66, N-(4-Cyanobenzyl)-6-((1-((1-(3-methoxyazetidin-1-yl)-2-methylpropan-2-yl)sulfonyl)cyclopropyl)methyl)-1-methyl-7-oxo-4,5,6,7-tetrahydro-1H-pyrazolo[3,4-c]pyridine-3-carboxamide] | 8.70 | 7.06 | –
11 | Cn1nc(-c2nc(Cc3ccc(C#N)cc3)no2)c2c1C(=O)N(CC1(S(=O)(=O)C3CC3)CC1)CC2 [Example 27, 4-((5-(6-((1-(Cyclopropylsulfonyl)cyclopropyl)methyl)-1-methyl-7-oxo-4,5,6,7-tetrahydro-1H-pyrazolo[3,4-c]pyridin-3-yl)-1,2,4-oxadiazol-3-yl)methyl)benzonitrile] | 8.15 | 6.68 | –
12 | Cn1nc(C(=O)NCc2ccc(C#N)cc2)c2c1C(=O)N(CC1(S(=O)(=O)C(C)(C)CNC(=O)CN)CC1)CC2 [Example 74, 6-((1-((1-(2-Aminoacetamido)-2-methylpropan-2-yl)sulfonyl)cyclopropyl)methyl)-N-(4-cyanobenzyl)-1-methyl-7-oxo-4,5,6,7-tetrahydro-1H-pyrazolo[3,4-c]pyridine-3-carboxamide] | 8.52 | 6.83 | –
13 | CC(C)(CO)S(=O)(=O)C1(CN2CCc3c(C(=O)NCc4ccc(C#N)cc4)nn(CCOCCBr)c3C2=O)CC1 [Example 238, 1-(2-(2-bromoethoxy)ethyl)-N-(4-cyanobenzyl)-6-((1-((1-hydroxy-2-methylpropan-2-yl)sulfonyl)cyclopropyl)methyl)-7-oxo-4,5,6,7-tetrahydro-1H-pyrazolo[3,4-c]pyridine-3-carboxamide] | 9.00 | 7.80 | –
14 | Cc1cc(NS(=O)(=O)C2(CN3CCc4c(C(=O)NCc5ccc(Cl)cc5)nn(C)c4C3=O)CC2)no1 [Example 166, N-(4-Chlorobenzyl)-1-methyl-6-((1-(N-(5-methylisoxazol-3-yl)sulfamoyl)cyclopropyl)methyl)-7-oxo-4,5,6,7-tetrahydro-1H-pyrazolo[3,4-c]pyridine-3-carboxamide] | 9.00 | 7.06 | –
15 | CC1(C)COCCOCCn2nc(C(=O)NCc3ccc(C#N)cc3)c3c2C(=O)N(CC3)CC2(CC2)S1(=O)=O [Example 239, Ethylene glycol macrocycle N-(4-cyanobenzyl)carboxamide] | – | 7.64 | 9.00
16 | CC(C)(O)Cn1nc(C(=O)NCc2ccc(C#N)cc2)c2c1C(=O)N(CC1(S(=O)(=O)C3CC3)CC1)CC2 [Example 230, N-(4-Cyanobenzyl)-6-((1-(cyclopropylsulfonyl)cyclopropyl)methyl)-1-(2-hydroxy-2-methylpropyl)-7-oxo-4,5,6,7-tetrahydro-1H-pyrazolo[3,4-c]pyridine-3-carboxamide] | 9.00 | 7.51 | –
17 | Cn1nc(C(=O)NCc2ccc(C#N)cc2)c2c1C(=O)N(CC1(S(=O)(=O)C(C)(CN)CO)CC1)CC2 (centres unmarked) [Example 183, 6-((1-((1-Amino-3-hydroxy-2-methylpropan-2-yl)sulfonyl)cyclopropyl)methyl)-N-(4-cyanobenzyl)-1-methyl-7-oxo-4,5,6,7-tetrahydro-1H-pyrazolo[3,4-c]pyridine-3-carboxamide] | 8.30 | 6.66 | –
18 | C[C@H](NC(=O)c1nn(C)c2c1CCN(CC1(S(=O)(=O)C(C)(C)CO)CC1)C2=O)c1ccc(C#N)cc1 [Example 54, (S)-N-(1-(4-Cyanophenyl)ethyl)-6-((1-((1-hydroxy-2-methylpropan-2-yl)sulfonyl)cyclopropyl)methyl)-1-methyl-7-oxo-4,5,6,7-tetrahydro-1H-pyrazolo[3,4-c]pyridine-3-carboxamide] | 8.70 | 7.28 | –
19 | Cn1nc(C(=O)NCc2ccc(C#N)cc2)c2c1C(=O)N(CC1(S(=O)(=O)C(C)(C)COCC(C)(C)O)CC1)CC2 [Example 86, N-(4-Cyanobenzyl)-6-((1-((1-(2-hydroxy-2-methylpropoxy)-2-methylpropan-2-yl)sulfonyl)cyclopropyl)methyl)-1-methyl-7-oxo-4,5,6,7-tetrahydro-1H-pyrazolo[3,4-c]pyridine-3-carboxamide] | – | 6.84 | 7.74
20 | Cn1nc(C(=O)NCc2ccc(C#N)cn2)c2c1C(=O)N(CC1(S(=O)(=O)C3CC3)CC1)CC2 [Example 14, N-((5-Cyanopyridin-2-yl)methyl)-6-((1-(cyclopropylsulfonyl)cyclopropyl)methyl)-1-methyl-7-oxo-4,5,6,7-tetrahydro-1H-pyrazolo[3,4-c]pyridine-3-carboxamide] | 7.02 | 6.23 | –
21 | Cc1ccc(CNC(=O)c2nn(C)c3c2CCN(CC2(S(=O)(=O)C4CC4)CC2)C3=O)cc1 [Example 8, 6-((1-(Cyclopropylsulfonyl)cyclopropyl)methyl)-1-methyl-N-(4-methylbenzyl)-7-oxo-4,5,6,7-tetrahydro-1H-pyrazolo[3,4-c]pyridine-3-carboxamide] | 7.46 | 6.47 | –
22 | Cn1nc(C(=O)NCc2ccc(C#N)cc2)c2c1C(=O)N(CC1(S(=O)(=O)C(C)(C)CO)CC1)CC2 [Example 52, N-(4-Cyanobenzyl)-6-((1-((1-hydroxy-2-methylpropan-2-yl)sulfonyl)cyclopropyl)methyl)-1-methyl-7-oxo-4,5,6,7-tetrahydro-1H-pyrazolo[3,4-c]pyridine-3-carboxamide] | 9.00 | 7.72 | –
23 | Cn1nc(C(=O)NCc2ccc(Cl)cc2)c2c1C(=O)N(CC1(S(=O)(=O)C(C)(C)CO)CC1)CC2 [Example 50, N-(4-Chlorobenzyl)-6-((1-((1-hydroxy-2-methylpropan-2-yl)sulfonyl)cyclopropyl)methyl)-1-methyl-7-oxo-4,5,6,7-tetrahydro-1H-pyrazolo[3,4-c]pyridine-3-carboxamide] | – | 7.70 | 9.00
24 | Cc1ncccc1NS(=O)(=O)C1(CN2CCc3c(C(=O)NCc4ccc(C#N)cc4)nn(C)c3C2=O)CC1 [Example 161, N-(4-Cyanobenzyl)-1-methyl-6-((1-(N-(2-methylpyridin-3-yl)sulfamoyl)cyclopropyl)methyl)-7-oxo-4,5,6,7-tetrahydro-1H-pyrazolo[3,4-c]pyridine-3-carboxamide] | 8.70 | 7.21 | –
25 | Cn1nc(C2=NOC(c3ccc(C#N)cc3)C2)c2c1C(=O)N(CC1(S(=O)(=O)C3CC3)CC1)CC2 (centres unmarked) [Example 31, 4-(3-(6-((1-(Cyclopropylsulfonyl)cyclopropyl)methyl)-1-methyl-7-oxo-4,5,6,7-tetrahydro-1H-pyrazolo[3,4-c]pyridin-3-yl)-4,5-dihydroisoxazol-5-yl)benzonitrile] | – | 7.00 | 7.92
